Oligonucleotides are written 5' to 3', each unit as a sugar letter and its base; * is a phosphorothioate linkage, no mark a phosphodiester; rarer units and linkages stand in square brackets, end groups in braces. Plain capitals give the bases only. e = 2'-O-(2-methoxyethyl) (MOE); [5mC] = 5-methylcytosine

Common to all, as to format: cell-based, human
The subject of data set [1] is IKBKAP mRNA in GM04899 fibroblasts. Briefly: Exon 20 inclusion in FD patient skin fibroblast line GM04899 (RT-PCR). To be noted: GM04899, kinetin treatment for 3 days, concentration not given; relative to IMR90 cells (100%). The procedure: To investigate the effect of ISIS 421992 on patient-derived fibroblasts, the patient skin fibroblast line GM04899 (Coriell Cell Repository) was utilized. The cell line was derived from an individual homozygous for the major FD mutation.
GM04899 was cultured in minimal essential medium (Invitrogen) supplemented with non-essential amino acids (Invitrogen) and 20% (v/v) fetal bovine serum. The cells were grown to 40-50% confluence in 10-cm dishes. Cells were transfected with 2 nM, 5 nM, 25 nM, or 125 nM concentrations of ISIS 421992 using 12 μL Lipofectamine 2000 transfection reagent (Invitrogen). Two days later, cDNA synthesized from total RNA extracted from HEK-293 cells was amplified using the forward primer pCDNAF and reverse primer sequence IKAP21R4 to assay the splicing pattern of expressed RNAs by RT-PCR. To calculate exon 20 inclusion levels, the PCR amplicons were labeled with α^32P-dCTP. The PCR products were then separated by native PAGE, followed by phosphorimage analysis. The band intensities were quantified and values were normalized for the G+C content according to the DNA sequence. Multiple lanes for each condition represent independent experiments.
A batch of cells was treated with solvent (NaOH) only of the kinetin solution as a control. RNA from IMR90, a wild-type normal diploid lung fibroblast cell line was used as positive control. The results are expressed as percent inclusion of exon 20 compared to the exon 20 inclusion (100%) of IKBKAP mRNA in IMR90 cells.

A further data set concerns IKAP protein. The data set can be described thus: IKAP protein levels in GM04899 fibroblasts (SDS-PAGE, anti-IKAP antibody, band intensity). The procedure:
Protein samples were obtained by Trizol extraction and separated by SDS-PAGE. The bands were transferred onto a nitrocellulose membrane and probed with an anti-IKAP antibody (abcam #ab56362) (1:1,000 dilution in 5% milk in TBST) for 12 hrs. The membrane was washed 5 times with TBST for 5 min each and then probed with secondary antibody 800 nm LiCor (1:5,000 in 5% milk in TBST) for 1 hr in the dark. The membrane was subsequently washed 5 times with TBST for 5 min each. The bands were then exposed at 800 nm and band intensity was quantified using an Odyssey (LiCor) instrument. The results are presented in Table 4 as percent increase in band intensity compared to the control oligonucleotide-treated bands.

The subject of data set [2] is IKBKAP pre-mRNA (mt19-21 minigene). The data set can be described thus: Exon 20 inclusion in HEK-293 cells harboring the mt19-21 IKBKAP minigene (RT-PCR). To be noted: HEK-293 with mt19-21 minigene; for % inclusion (exon 20): 0.007 nmol oligonucleotide by electroporation, RT-PCR two days later; for effect on exon 20 inclusion/skipping, in words: 0.007 nmol oligonucleotide. The procedure:
Antisense oligonucleotides were designed targeting a human IKBKAP nucleic acid and were tested for their effects on IKBKAP pre-mRNA in vitro. Together, the overlapping antisense oligonucleotides spanned the entire 74-nucleotide region of the IKBKAP exon 20 sequence, as well as the 100-nucleotide intronic regions immediately upstream and downstream of exon 20. The antisense oligonucleotides are presented in Table 1, and were designed as uniform 2′-O-methoxyethyl ribose (MOE) oligonucleotides with phosphate backbones. Each oligonucleotide is 15 nucleosides in length. All cytosine residues throughout the oligonucleotide are 5-methylcytosines. ‘Start Site’ indicates the 5′-most nucleoside to which the oligonucleotide is targeted in the human gene sequence. “Stop site” indicates the 3′-most nucleoside to which the oligonucleotide is targeted in the human gene sequence. Each oligonucleotide listed in Table 1 is targeted to the human IKBKAP genomic sequence (the complement of GENBANK Accession No NT_008470.16 truncated from nucleotides 13290828 to Ser. No. 13/358,424, designated herein as SEQ ID NO: 1). ISIS 414161 has one mismatch with SEQ ID NO: 1.
Cultured HEK-293 cells harboring the mt19-21 minigene vector construct at a density of 7×10^5 cells per well were transfected using electroporation (Gene Pulsar II apparatus, Bio-Rad) with 0.007 nmol antisense oligonucleotide, as previously described (Hua, Y., et al., 2007. PLoS Biol 5:e73). […] These oligonucleotides served as controls for non-specific effects of uniform MOE oligonucleotides with phosphate backbones. Cells harboring the wt19-21 minigene and the mt19-21 minigene alone were also cultured and were used as controls for exon 20 inclusion levels. Two days later, cDNA synthesized from total RNA extracted from HEK-293 cells was amplified using the forward primer pCDNAF and reverse primer sequence IKAP21R4 to assay the splicing pattern of expressed RNAs by RT-PCR. To calculate exon 20 inclusion levels, the PCR amplicons were labeled with α^32P-dCTP. The PCR products were then separated by native PAGE, followed by phosphorimage analysis on a FUJIFILM FLA-5100 instrument (Fuji Medical Systems USA Inc.). The band intensities were quantified using Multi Gauge software Version 2.3 (FUJIFILM), and values were normalized for the G+C content according to the DNA sequence.
Treatment with antisense oligonucleotides targeting the 3′ and 5′ splice sites caused increased skipping of exon 20.
Additional oligonucleotides were designed targeting the first 30-nucleotide stretch of ISS-40. These oligonucleotides were designed by choosing sequences shifted in one nucleotide increments upstream and downstream (i.e., a “microwalk”) of ISS-40, starting from the +6 position in exon 20. The antisense oligonucleotides are presented in Table 2 and FIG. 4D, and were designed as uniform 2′-O-methoxyethyl ribose (MOE) oligonucleotides with phosphate backbones. Each oligonucleotide is 20 nucleosides in length. All cytosine residues throughout the oligonucleotide are 5-methylcytosines. ‘Start Site’ indicates the 5′-most nucleoside to which the oligonucleotide is targeted in the human gene sequence. “Stop site” indicates the 3′-most nucleoside to which the oligonucleotide is targeted in the human gene sequence. Each oligonucleotide listed in Table 2 is targeted to intron 20 of the human IKBKAP genomic sequence (the complement of GENBANK Accession No NT_008470.16 truncated from nucleotides 13290828 to Ser. No. 13/358,424, designated herein as SEQ ID NO: 1). These oligonucleotides were tested in vitro.
Cultured HEK-293 cells harboring the mt19-21 minigene vector construct at a density of 7×10^5 cells per well were transfected using electroporation (Gene Pulsar II apparatus, Bio-Rad) with 0.007 nmol antisense oligonucleotide, as previously described (Hua, Y., et al., 2007. PLoS Biol 5:e73). […]

For the compound `c1coc(CNc2ncnc3nc[nH]c23)c1` [kinetin, 6-furfurylaminopurine, reference compound], the “% inclusion of exon 20” value in data set [1] came to 98%. The “IKAP protein levels, in words” value in the data set on IKAP protein (GM04899, kinetin, under these conditions) is reported as “did not increase IKAP protein levels”. Moreover, the “Percent increase in protein band intensity (IKAP)” value with IKAP protein (GM04899, kinetin-treated, compared to control oligonucleotide-treated bands) came to 11%.

In the case of “ISIS 414146: uniform 2′-MOE 15-mer, phosphate backbone; CTTAAATAAATTAAA, SEQ ID NO 25, intron 19 (e[5mC]eTeTeAeAeAeTeAeAeAeTeTeAeAeA; splice-switching)”, in data set [2] (Table 1), the “% inclusion (exon 20)” value amounted to 26%.

As to “ISIS 414161: uniform 2′-MOE 15-mer, phosphate backbone; AACAGTACAATGGCG, SEQ ID NO 40, intron 20; one mismatch with SEQ ID NO 1 (eAeAe[5mC]eAeGeTeAe[5mC]eAeAeTeGeGe[5mC]eG)”, in data set [2], the “effect on exon 20 inclusion/skipping, in words” value is “markedly increased inclusion of exon 20”. For the same compound, the entries for the “% inclusion (exon 20)” value in data set [2] (Table 1) and in data set [2] (Table 2 (microwalk experiment)) were 88% and 79%, respectively.

For the compound “ISIS 414168: uniform 2′-MOE 15-mer, phosphate backbone; GTCTTCACACATAAA, SEQ ID NO 47, intron 20 (eGeTe[5mC]eTeTe[5mC]eAe[5mC]eAe[5mC]eAeTeAeAeA; splice-switching)”, the “effect on exon 20 inclusion/skipping, in words” value in data set [2] is “significantly decreased the levels of the included RNA isoform”. In data set [2] (Table 1), the “% inclusion (exon 20)” value is on record as 17%.

For “ISIS 414162: uniform 2′-MOE 15-mer, phosphate backbone; TCGCAAACAGTACAA, SEQ ID NO 41, intron 20 (eTe[5mC]eGe[5mC]eAeAeAe[5mC]eAeGeTeAe[5mC]eAeA; splice-switching)”, in data set [2], the “effect on exon 20 inclusion/skipping, in words” value is reported as “markedly increased inclusion of exon 20”. The results for the “% inclusion (exon 20)” value in data set [2] (Table 1) and in data set [2] (Table 2 (microwalk experiment)) were 79% and 82%, respectively.

For “ISIS 421993: uniform 2′-MOE 20-mer, phosphate backbone; AGTCGCAAACAGTACAATGG, SEQ ID NO 62, intron 20 (eAeGeTe[5mC]eGe[5mC]eAeAeAe[5mC]eAeGeTeAe[5mC]eAeAeTeGeG; splice-switching)”, in data set [2] (Table 2 (microwalk experiment)), the “% inclusion (exon 20)” value is given as 87%.

Consider “ISIS 421994: uniform 2′-MOE 20-mer, phosphate backbone; TAGTCGCAAACAGTACAATG, SEQ ID NO 63, intron 20 (eTeAeGeTe[5mC]eGe[5mC]eAeAeAe[5mC]eAeGeTeAe[5mC]eAeAeTeG; splice-switching)”, for which, in data set [2] (Table 2 (microwalk experiment)), the “% inclusion (exon 20)” value was 91%.

“ISIS 414153: uniform 2′-MOE 15-mer, phosphate backbone; AACCAGGGCTCGATG, SEQ ID NO 32, exon 20 (antisense eAeAe[5mC]e[5mC]eAeGeGeGe[5mC]eTe[5mC]eGeAeTeG)”: the “% inclusion (exon 20)” value in data set [2] (Table 1) was determined as 5%.

Turning to “ISIS 414140: uniform 2′-MOE 15-mer, phosphate backbone; ATTAAGTAGAAAACA, SEQ ID NO 19, intron 19 (eAeTeTeAeAeGeTeAeGeAeAeAeAe[5mC]eA; splice-switching)”, in data set [2] (Table 1), the “% inclusion (exon 20)” value came out at 13%.

Turning to “ISIS 414129: uniform 2′-MOE 15-mer, phosphate backbone, 5-methylcytosines; AGAGAATTACCACAA, SEQ ID NO 8, intron 19 (eAeGeAeGeAeAeTeTeAe[5mC]e[5mC]eAe[5mC]eAeA; splice-switching)”, the “% inclusion (exon 20)” value in data set [2] (Table 1) worked out at 23%.

Values taken from patent publication US11066668B2, “Compositions and methods for modulation of IKBKAP splicing” (Ionis Pharmaceuticals, Inc., priority 2012, dated 2021).
